In patent US20070128217A1 (priority 2003, published 2007):

Legend:
[1] = tested on: rabbit serum obtained by immunizing a rabbit with the SARS-CoV strain Frankfurt 1; format: binding; set-up: Binding of a rabbit serum to linear peptides / Binding of a rabbit serum to looped peptides / Rabbit serum linear peptides / Rabbit serum looped peptides / Binding of a rabbit serum to linear peptides of protein N of SARS-CoV Urbani (Rabbit serum linear peptides) / Binding of a rabbit serum to looped/cyclic peptides of protein N of SARS-CoV Urbani (Rabbit serum looped peptides): unit not given here
[2] = tested on: antibodies in sera from SARS patients (sera 1a, 1b, 2, 6, 37, 62, London, SARS-yellow, SARS-green); format: binding, human
[3] = tested on: control sera (pooled serum of ten healthy LUMC hospital workers; commercial negative donor pooled serum from the Dutch bloodbank); format: binding, human

| Sequence | Binding of a rabbit serum to linear peptides [1] | Binding of a rabbit serum to looped peptides [1] | Binding of serum 1a to linear peptides of protein E of SARS-CoV Urbani [2] | Binding of serum 1a to looped/cyclic peptides of protein E of SARS-CoV Urbani [2] | Binding of serum 1b to linear peptides of protein E of SARS-CoV Urbani [2] | Binding of serum 1b to looped/cyclic peptides of protein E of SARS-CoV Urbani [2] | Binding of serum 2 to linear peptides of protein E of SARS-CoV Urbani [2] | Binding of serum 2 to looped/cyclic peptides of protein E of SARS-CoV Urbani [2] | Binding of serum 6 to linear peptides of protein E of SARS-CoV Urbani [2] | Binding of serum 6 to looped/cyclic peptides of protein E of SARS-CoV Urbani [2] | Binding of serum 37 to linear peptides of protein E of SARS-CoV Urbani [2] | Binding of serum 37 to looped/cyclic peptides of protein E of SARS-CoV Urbani [2] | Binding of serum 62 to looped/cyclic peptides of protein E of SARS-CoV Urbani [2] | Binding of serum London to looped/cyclic peptides of protein E of SARS-CoV Urbani [2] | Binding of serum SARS-green to looped/cyclic peptides of protein E of SARS-CoV Urbani [2] | Binding of serum SARS-yellow to looped/cyclic peptides of protein E of SARS-CoV Urbani [2] | Binding of Control Serum Blood-Bank to Looped peptides [3] | Binding of Control serum Blood-bank to linear peptides [3] | Binding of Control serum LUMC to linear peptides [3] | Binding of Control serum LUMC to looped peptides [3] | other results |
| --- | --- | --- | --- | --- | --- | --- | --- | --- | --- | --- | --- | --- | --- | --- | --- | --- | --- | --- | --- | --- | --- |
| TLAILTALRLCAYCC | 0.7 | 0.4 | 0.8 | 0.7 | 0.9 | 0.6 | 0.3 | 0.7 | 0.6 | 0.7 | 0.7 | 0.7 | 0.7 | 0.5 | 0.5 | 0.9 | 0.7 | 0.6 | 0.4 | 0.8 | Binding of serum 62 to linear peptides of protein E of SARS-CoV Urbani [2]: 0.7; Binding of serum London to linear peptides of protein E of SARS-CoV Urbani [2]: 0.5; Binding of serum SARS-green to linear peptides of protein E of SARS-CoV Urbani [2]: 0.5; Binding of serum SARS-yellow to linear peptides of protein E of SARS-CoV Urbani [2]: 0.2 |
| LLVTLAILTALRLCA | 0.5 | 0.8 | 0.8 | 0.7 | 0.4 | 0.1 | 0.5 | 0.6 | 0.4 | 0.4 | 0.6 | 0.3 | 0.8 | 0.4 | 0.6 | 0.3 | 0.8 | 0.7 | 0.3 | 0.8 | Binding of serum 62 to linear peptides of protein E of SARS-CoV Urbani [2]: 0.6; Binding of serum London to linear peptides of protein E of SARS-CoV Urbani [2]: 0.5; Binding of serum SARS-green to linear peptides of protein E of SARS-CoV Urbani [2]: 0.4; Binding of serum SARS-yellow to linear peptides of protein E of SARS-CoV Urbani [2]: 0.0 |
| SEETGTLIVNSVLLF | 0.7 | 0.0 | 0.9 | 0.4 | 0.7 | 0.3 | 0.3 | 0.3 | 0.7 | 0.5 | 0.7 | 0.4 | 0.7 | 0.5 | 0.4 | 0.5 | 0.6 | 0.5 | 0.6 | 0.5 | Binding of serum 62 to linear peptides of protein E of SARS-CoV Urbani [2]: 0.7; Binding of serum London to linear peptides of protein E of SARS-CoV Urbani [2]: 0.5; Binding of serum SARS-green to linear peptides of protein E of SARS-CoV Urbani [2]: 0.4; Binding of serum SARS-yellow to linear peptides of protein E of SARS-CoV Urbani [2]: 0.1 |
| TGTLIVNSVLLFLAF | 0.5 | 0.0 |  | 0.4 |  | 0.3 |  | 0.4 |  | 0.3 |  | 0.3 | 0.6 | 0.3 | 0.2 | 0.4 | 0.4 | 0.6 | 0.3 | 0.5 |  |
